Source: ChEMBL document CHEMBL1137480, “Synthesis and structure-activity relationship of 7-(substituted)-aminomethyl-4-quinolone-3-carboxylic acid derivatives” (2007)
Converted amounts (≈) assume the structure as drawn.

Key:
Assay type in all cases: functional
Staphylococcus aureus = experiment: Antibacterial activity against Staphylococcus aureus 26003 after 24 hrs by agar dilution method
[1] = test system: Staphylococcus epidermidis; experiment: Antibacterial activity against Staphylococcus epidermidis 26069 after 24 hrs by agar dilution method
Streptococcus pneumoniae = experiment: Antibacterial activity against Streptococcus pneumoniae 31002 after 24 hrs by agar dilution method
Shigella boydii = experiment: Antibacterial activity against Shigella boydii 51313 after 24 hrs by agar dilution method
Klebsiella pneumoniae = experiment: Antibacterial activity against Klebsiella pneumoniae 46101 after 24 hrs by agar dilution method
Salmonella = experiment: Antibacterial activity against […] 48107 after 24 hrs by agar dilution method

Row | SMILES | MIC (Staphylococcus aureus) [µg/mL] | MIC [1] [µg/mL] | MIC (Streptococcus pneumoniae) [µg/mL] | MIC (Shigella boydii) [µg/mL] | MIC (Klebsiella pneumoniae) [µg/mL] | MIC (Salmonella) [µg/mL]
1 | CC(C)NCc1c(F)cc2c(=O)c(C(=O)O)cn3c2c1OC[C@@H]3C | > 6.25 | > 6.25 | 3.13 (≈ 9.36 µM) | 0.39 (≈ 1.17 µM) | 0.195 (≈ 0.583 µM) | 0.39 (≈ 1.17 µM)
2 | C[C@H]1COc2c(CNC3CC3)c(F)cc3c(=O)c(C(=O)O)cn1c23 | 3.13 (≈ 9.42 µM) | > 6.25 | 0.39 (≈ 1.17 µM) | 0.049 (≈ 0.147 µM) | 0.049 (≈ 0.147 µM) | 0.049 (≈ 0.147 µM)
3 | C[C@H]1COc2c(CN3CCCC3)c(F)cc3c(=O)c(C(=O)O)cn1c23 | 6.25 (≈ 18 µM) | > 6.25 | 0.78 (≈ 2.25 µM) | 0.39 (≈ 1.13 µM) | 0.049 (≈ 0.141 µM) | 0.098 (≈ 0.283 µM)
4 | C[C@H]1COc2c(CN3CCCCC3)c(F)cc3c(=O)c(C(=O)O)cn1c23 | > 6.25 | > 6.25 | 1.56 (≈ 4.33 µM) | 0.78 (≈ 2.16 µM) | 0.195 (≈ 0.541 µM) | 0.39 (≈ 1.08 µM)
5 | C[C@H]1COc2c(CN3CCNCC3)c(F)cc3c(=O)c(C(=O)O)cn1c23 | > 6.25 | > 6.25 | > 6.25 | > 6.25 | 3.13 (≈ 8.66 µM) | > 6.25
6 | C[C@H]1COc2c(CN3CCN(C)CC3)c(F)cc3c(=O)c(C(=O)O)cn1c23 | > 6.25 | > 6.25 | 1.56 (≈ 4.16 µM) | 1.56 (≈ 4.16 µM) | 0.78 (≈ 2.08 µM) | 1.56 (≈ 4.16 µM)
7 | C[C@H]1COc2c(CNc3ccccc3)c(F)cc3c(=O)c(C(=O)O)cn1c23 | 1.56 (≈ 4.23 µM) | 1.56 (≈ 4.23 µM) | 0.098 (≈ 0.266 µM) | 0.39 (≈ 1.06 µM) | 0.78 (≈ 2.12 µM) | 0.78 (≈ 2.12 µM)
8 | C[C@H]1COc2c(CNc3ccc(Cl)cc3)c(F)cc3c(=O)c(C(=O)O)cn1c23 | 0.098 (≈ 0.243 µM) | 0.098 (≈ 0.243 µM) | ≤ 0.049 | 0.195 (≈ 0.484 µM) | 0.195 (≈ 0.484 µM) | 0.098 (≈ 0.243 µM)
9 | C[C@H]1COc2c(CNc3cccc(Cl)c3)c(F)cc3c(=O)c(C(=O)O)cn1c23 | 1.56 (≈ 3.87 µM) | 3.13 (≈ 7.77 µM) | 0.195 (≈ 0.484 µM) | 1.56 (≈ 3.87 µM) | 6.25 (≈ 15.5 µM) | 6.25 (≈ 15.5 µM)
10 | C[C@H]1COc2c(CNc3ccc(F)cc3)c(F)cc3c(=O)c(C(=O)O)cn1c23 | 0.78 (≈ 2.02 µM) | 0.78 (≈ 2.02 µM) | 0.049 (≈ 0.127 µM) | 0.78 (≈ 2.02 µM) | 0.78 (≈ 2.02 µM) | 0.78 (≈ 2.02 µM)
11 | C[C@H]1COc2c(CNc3ccc(F)c(Cl)c3)c(F)cc3c(=O)c(C(=O)O)cn1c23 | 0.098 (≈ 0.233 µM) | 0.195 (≈ 0.463 µM) | ≤ 0.049 | 0.195 (≈ 0.463 µM) | 0.195 (≈ 0.463 µM) | 0.39 (≈ 0.927 µM)
12 | Cc1ccc(NCc2c(F)cc3c(=O)c(C(=O)O)cn4c3c2OC[C@@H]4C)cc1 | 0.78 (≈ 2.04 µM) | 3.13 (≈ 8.19 µM) | 0.098 (≈ 0.256 µM) | 0.78 (≈ 2.04 µM) | 3.13 (≈ 8.19 µM) | 1.56 (≈ 4.08 µM)
13 | Cc1ccc(NCc2c(F)cc3c(=O)c(C(=O)O)cn4c3c2OC[C@@H]4C)cc1C | 3.13 (≈ 7.9 µM) | 3.13 (≈ 7.9 µM) | 0.195 (≈ 0.492 µM) | 1.56 (≈ 3.94 µM) | 6.25 (≈ 15.8 µM) | 3.13 (≈ 7.9 µM)
14 | Cc1cc(C)nc(NCc2c(F)cc3c(=O)c(C(=O)O)cn4c3c2OC[C@@H]4C)c1 | 0.78 (≈ 1.96 µM) | 0.78 (≈ 1.96 µM) | 0.195 (≈ 0.491 µM) | 0.195 (≈ 0.491 µM) | 0.39 (≈ 0.981 µM) | 0.78 (≈ 1.96 µM)
15 | C[C@H]1COc2c(CN(C)c3ccc(F)cc3)c(F)cc3c(=O)c(C(=O)O)cn1c23 | 3.13 (≈ 7.82 µM) | 3.13 (≈ 7.82 µM) | 0.39 (≈ 0.974 µM) | 1.56 (≈ 3.9 µM) | 1.56 (≈ 3.9 µM) | 1.56 (≈ 3.9 µM)
16 | CNCc1c(F)cc2c(=O)c(C(=O)O)cn3c2c1OCC3C (stereo not drawn) | 3.13 (≈ 10.2 µM) | > 6.25 | 3.13 (≈ 10.2 µM) | 0.098 (≈ 0.32 µM) | 0.098 (≈ 0.32 µM) | ≤ 0.049
17 | CC1COc2c(CNC3CC3)c(F)cc3c(=O)c(C(=O)O)cn1c23 (stereo not drawn) | 3.13 (≈ 9.42 µM) | 3.13 (≈ 9.42 µM) | 0.39 (≈ 1.17 µM) | ≤ 0.049 | ≤ 0.049 | ≤ 0.049
18 | CC1COc2c(CN3CCCC3)c(F)cc3c(=O)c(C(=O)O)cn1c23 (stereo not drawn) | > 6.25 | > 6.25 | 3.13 (≈ 9.04 µM) | 0.39 (≈ 1.13 µM) | 0.195 (≈ 0.563 µM) | 0.39 (≈ 1.13 µM)
19 | CC1COc2c(CN3CCCCC3)c(F)cc3c(=O)c(C(=O)O)cn1c23 (stereo not drawn) | > 6.25 | > 6.25 | 3.13 (≈ 8.69 µM) | 0.098 (≈ 0.272 µM) | 0.39 (≈ 1.08 µM) | 0.78 (≈ 2.16 µM)
20 | CC1COc2c(CNc3ccc(Cl)cc3)c(F)cc3c(=O)c(C(=O)O)cn1c23 (stereo not drawn) | 0.195 (≈ 0.484 µM) | 0.78 (≈ 1.94 µM) | ≤ 0.049 | 1.56 (≈ 3.87 µM) | > 6.25 | 1.56 (≈ 3.87 µM)
21 | CC1COc2c(Cn3ccnc3)c(F)cc3c(=O)c(C(=O)O)cn1c23 (stereo not drawn) | 3.13 (≈ 9.12 µM) | 3.13 (≈ 9.12 µM) | 0.78 (≈ 2.27 µM) | 0.78 (≈ 2.27 µM) | 0.195 (≈ 0.568 µM) | 0.39 (≈ 1.14 µM)
22 | C[C@H]1COc2c(N3CCN(C)CC3)c(F)cc3c(=O)c(C(=O)O)cn1c23.C[C@H]1COc2c(N3CCN(C)CC3)c(F)cc3c(=O)c(C(=O)O)cn1c23.O [LEVOFLOXACIN] | 0.78 | 0.78 | 0.195 | 0.098 | 0.098 | 0.098
23 | C[C@H]1COc2c(C3(N)CC3)c(F)cc3c(=O)c(C(=O)O)cn1c23 [PAZUFLOXACIN] | 0.195 (≈ 0.613 µM) | 0.39 (≈ 1.23 µM) | 0.049 (≈ 0.154 µM) | 0.049 (≈ 0.154 µM) | 0.049 (≈ 0.154 µM) | 0.049 (≈ 0.154 µM)
